The source of these data is US20250051347A1, “BIFUNCTIONAL CHIMERIC HETEROCYCLIC COMPOUND AND USE THEREOF AS ANDROGEN RECEPTOR DEGRADER” (Hinova Pharmaceuticals, Inc., priority 2021, published 2025).

The target in the first experiment is T1, androgen receptor (AR) splicing variant AR-v7 (Homo sapiens, UniProt P10275).
T1 construct: The degradation activity of compounds on AR-v7 in 22RV1 cells; host or cells: 22RV1 cells
T1 sequence (P10275 1-644 isoform P10275-3): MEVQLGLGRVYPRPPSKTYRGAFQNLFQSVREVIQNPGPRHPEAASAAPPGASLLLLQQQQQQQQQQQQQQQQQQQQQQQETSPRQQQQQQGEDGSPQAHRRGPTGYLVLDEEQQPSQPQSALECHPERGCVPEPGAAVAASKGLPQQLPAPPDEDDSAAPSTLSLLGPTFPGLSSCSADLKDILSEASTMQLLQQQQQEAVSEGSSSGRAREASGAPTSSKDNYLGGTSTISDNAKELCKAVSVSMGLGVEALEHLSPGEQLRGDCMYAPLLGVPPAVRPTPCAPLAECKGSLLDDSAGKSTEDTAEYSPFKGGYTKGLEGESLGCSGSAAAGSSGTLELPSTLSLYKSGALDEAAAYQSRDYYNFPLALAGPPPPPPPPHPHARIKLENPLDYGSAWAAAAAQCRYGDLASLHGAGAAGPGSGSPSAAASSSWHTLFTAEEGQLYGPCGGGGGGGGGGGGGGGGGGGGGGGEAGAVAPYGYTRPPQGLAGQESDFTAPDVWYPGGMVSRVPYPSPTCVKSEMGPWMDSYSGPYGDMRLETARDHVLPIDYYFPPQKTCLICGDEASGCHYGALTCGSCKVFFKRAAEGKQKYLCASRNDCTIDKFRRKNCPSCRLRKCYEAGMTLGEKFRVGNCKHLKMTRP
Description: Degradation activity on androgen receptor splicing variant AR-v7 in 22RV1 cells (ELISA). In kind it is cell-based. The note with it: AR-v7 degradation in 22RV1 cells, 48 h, class symbols. For orientation: In an ELISA, binding on a coated surface is turned into a signal by an enzyme label.
As for `CC(C)(c1ccc(OCc2ccnc(N3CC4(COC4)C3)n2)cc1)c1ccc(O[C@H]2C[C@@H](Nc3ccc4c(c3)C(=O)N(C3CCC(=O)NC3=O)C4)C2)cc1` (stereo partly shown) [Example 92, 3-(6-(((1s,3s)-3-(4-(2-(4-((2-(2-oxa-6-azaspiro[3.3]heptane-6-yl)pyrimidin-4-yl)methoxy)phenyl)propan-2-yl)phenoxy)cyclobutyl)amino)-1-oxoisoindolin-2-yl)piperidin-2,6-dione], the DC50 is 101 to 1000 nM.
On the same count and under the same terms, for `CC(C)(c1ccc(Oc2ccc(-n3nccn3)nc2)cc1)c1ccc(OC2CC(Nc3ccc4c(c3)CN(C3CCC(=O)NC3=O)C4=O)C2)cc1` (stereo not shown) [Example 93, 3-(5-((1r,3r)-3-(4-(2-(4-((6-(2H-1,2,3-triazol-2-yl)pyridin-3-yl)oxy)phenyl)propan-2-yl)phenoxy)cyclobutyl)amino)-1-oxoisoindolin-2-yl)piperidin-2,6-dione] the value was 101 to 1000 nM; for `CN1C(=O)CCC(N2C(=O)c3ccc(N[C@H]4C[C@H](Oc5ccc(C(C)(C)c6ccc(OCc7ccnc(N8CC9(COC9)C8)n7)cc6)cc5)C4)cc3C2=O)C1=O` (stereo partly shown) [Example 100, 5-((1r,3r)-3-(4-(2-(4-(4-((2-(2-oxa-6-azaspiro[3.3]heptane-6-yl)pyrimidin-4-yl)methoxy)phenyl)propan-2-yl)phenoxy)cyclobutyl)amino)-2-(1-methyl-2,6-dioxopiperidin-3-yl)isoindolin-1,3-dione], 101 to 1000 nM.
Still for that read-out and setting: in the case of `Cc1nc(-c2ncc(Oc3ccc(C(C)(C)c4ccc(O[C@H]5C[C@H](Nc6cc7c(cc6F)C(=O)N(C6CCC(=O)NC6=O)C7=O)C5)cc4)cc3)cn2)no1` (stereo partly shown) [Example 102] it was 11 to 100 nM; in that of `CC(=O)c1nccc(COc2ccc(C(C)(C)c3ccc(O[C@H]4C[C@H](N(C)c5ccc6c(c5)C(=O)N(C5CCC(=O)NC5=O)C6=O)C4)cc3)cc2)n1` (stereo partly drawn) [Example 111, 5-(((trans)-3-(4-(2-(4-((2-acetylpyrimidin-4-yl)methoxy)phenyl)propan-2-yl)phenoxy)cyclobutyl)(methyl)amino)-2-(2,6-dioxopiperidin-3-yl)isoindolin-1,3-dione], 101 to 1000 nM; in that of `CC(C)(c1ccc(OCc2ccnc(N3CC4(COC4)C3)n2)cc1)c1ccc(OCC2CC(Nc3ccc4c(c3)C(=O)N(C3CCC(=O)NC3=O)C4=O)C2)cc1` (stereo not shown) [Example 112, 5-((3-((4-(2-(4-((2-(2-oxa-6-azaspiro[3.3]heptan-6-yl)pyrimidin-4-yl)methoxy)phenyl)propan-2-yl)phenoxy)methyl)cyclobutyl)amino)-2-(2,6-dioxopiperidin-3-yl)isoindolin-1,3-dione], 11 to 100 nM.
On the same count and under the same terms, for `CC(C)(c1ccc(OCCCOc2ccc3c(c2)C(=O)N(C2CCC(=O)NC2=O)C3=O)cc1)c1ccc(OCc2ccnc(N3CC4(COC4)C3)n2)cc1` (stereo not shown) [Example 113, 5-(3-(4-(2-(4-((2-(2-oxa-6-azaspiro[3.3]heptan-6-yl)pyrimidin-4-yl)methoxy)phenyl)propan-2-yl)phenoxy)propoxy)-2-(2,6-dioxopiperidin-3-yl)isoindolin-1,3-dione] the value was 1000 to 5000 nM.
Molecule `CC(C)(c1ccc(OCCNC(=O)c2ccc3c(c2)C(=O)N(C2CCC(=O)NC2=O)C3=O)cc1)c1ccc(OCc2ccnc(N3CC4(COC4)C3)n2)cc1` (stereo not shown) [Example 114, N-(2-(4-(2-(4-((2-(2-oxa-6-azaspiro[3.3]heptan-6-yl)pyrimidin-4-yl)methoxy)phenyl)propan-2-yl)phenoxy)ethyl)-2-(2,6-dioxopiperidin-3-yl)-1,3-dioxoisoindolin-5-carbonylamine] registered a DC50 of 1000 to 5000 nM.
Regarding `CC(C)(c1ccc(OCc2cccc(C(=O)C3CC3)n2)cc1)c1ccc(O[C@H]2C[C@H](Nc3ccc4c(c3)C(=O)N(C3CCC(=O)NC3=O)C4=O)C2)cc1` (stereo partly drawn) [Example 117, 5-(((trans)-3-(4-(2-(4-((6-(cyclopropanecarbonyl)pyridin-2-yl)methoxy)phenyl)propan-2-yl)phenoxy)cyclobutyl)amino)-2-(2,6-dioxopiperidin-3-yl)isoindolin-1,3-dione], the half-maximal degradation concentration (DC50) lay within 11 to 100 nM.
Take `Cc1nnc(-c2ccc(Oc3ccc(C(C)(C)c4ccc(O[C@H]5C[C@@H](Nc6ccc7c(=O)n(C8CCC(=O)NC8=O)cnc7c6)C5)cc4)cc3)cn2)o1` (stereo partly shown) [Example 120]: the half-maximal degradation concentration (DC50) lay in the range of 11 to 100 nM.
The same measure, in the same setting: in the case of `CC(O)c1ncc(Oc2ccc(C(C)(C)c3ccc(O[C@H]4C[C@@H](Nc5ccc6c(c5)C(=O)N(C5CCC(=O)NC5=O)C6=O)C4)cc3)cc2)cn1` (stereo partly shown) [Example 127] it was 11 to 100 nM.
The same measure, in the same setting: for `CC(O)c1cnc(Oc2ccc(C(C)(C)c3ccc(O[C@H]4C[C@@H](Nc5ccc6c(c5)C(=O)N(C5CCC(=O)NC5=O)C6=O)C4)cc3)cc2)cn1` (stereo partly shown) [Example 129] the value was 11 to 100 nM; for `CC(=O)c1nccc(COc2ccc(C(C)(C)c3ccc(OCCCCCCCCOCCCCNc4ccc5c(c4)C(=O)N(C4CCC(=O)NC4=O)C5=O)cc3)cc2)n1` (stereo not shown) [Example 136, 5-((4-((8-(4-(2-(4-((2-acetylpyrimidin-4-yl)methoxy)phenyl)propan-2-yl)phenoxy)octyl)oxy)butyl)amino)-2-(2,6-dioxopiperidin-3-yl)isoindolin-1,3-dione], 101 to 1000 nM.
In turn, `CNC(=O)c1noc(COc2ccc(C(C)(C)c3ccc(OCCCNc4ccc5c(c4)C(=O)N(C4CCC(=O)NC4=O)C5=O)cc3)cc2)n1` (stereo not shown) [Example 137, 5-((4-(2-(4-(3-((2-(2,6-dioxopiperidin-3-yl)-1,3-dioxoisoindolin-5-yl)amino)propoxy)phenyl)propan-2-yl)phenoxy)methyl)-N-methyl-1,2,4-oxadiazol-3-carbonylaminomethane] showed a DC50 of 11 to 100 nM.
In the case of `CC(C)(c1ccc(OCCCCCCCCOCCCCNc2ccc3c(c2)C(=O)N(C2CCC(=O)NC2=O)C3=O)cc1)c1ccc(OCc2nc(C(N)=O)no2)cc1` (stereo not shown) [Example 138], the DC50 lay in the range of 1000 to 5000 nM.
As for `CC(C)(c1ccc(OCCCNc2ccc3c(c2)C(=O)N(C2CCC(=O)NC2=O)C3=O)cc1)c1ccc(OCc2nc(C(=O)N3CCC3)no2)cc1` (stereo not shown) [Example 139, 5-((3-(4-(2-(4-((3-(azetidin-1-carbonyl)-1,2,4-oxadiazol-5-yl)methoxy)phenyl)propan-2-yl)phenoxy)propyl)amino)-2-(2,6-dioxopiperidin-3-yl)isoindolin-1,3-dione], the DC50 is 101 to 1000 nM.
On the same count and under the same terms, in the case of `CC(C)(c1ccc(OCCCNc2ccc3c(c2)C(=O)N(C2CCC(=O)NC2=O)C3=O)cc1)c1ccc(OCc2nc(C(=O)N3CCCC3)no2)cc1` (stereo not shown) [Example 140, 2-(2,6-dioxopiperidin-3-yl)-5-((3-(4-(2-(4-((3-(pyrrolidin-1-carbonyl)-1,2,4-oxadiazol-5-yl)methoxy)phenyl)propan-2-yl)phenoxy)propyl)amino)isoindolin-1,3-dione] it was 101 to 1000 nM; in that of `CC(=O)c1nccc(COc2ccc(C(C)(C)c3ccc(OC[C@H]4CCCN4c4ccc5c(c4)C(=O)N(C4CCC(=O)NC4=O)C5=O)cc3)cc2)n1` (stereo partly drawn) [Example 144, 5-((R)-2-((4-(2-(4-((2-acetylpyrimidin-4-yl)methoxy)phenyl)propan-2-yl)phenoxy)methyl)pyrrolidin-1-yl)-2-(2,6-dioxopiperidin-3-yl)isoindolin-1,3-dione], 1000 to 5000 nM.
For `CC(=O)c1nccc(COc2ccc(C(C)(C)c3ccc(OC[C@@H]4CCCN4c4ccc5c(c4)C(=O)N(C4CCC(=O)NC4=O)C5=O)cc3)cc2)n1` (stereo partly drawn) [Example 145, 5-((S)-2-((4-(2-(4-((2-acetylpyrimidin-4-yl)methoxy)phenyl)propan-2-yl)phenoxy)methyl)pyrrolidin-1-yl)-2-(2,6-dioxopiperidin-3-yl)isoindolin-1,3-dione], the DC50 lay in the range of 101 to 1000 nM.
For the molecule `CC(=O)c1nccc(COc2ccc(C(C)(C)c3ccc(OC[C@H]4CC[C@H](Nc5ccc6c(c5)C(=O)N(C5CCC(=O)NC5=O)C6=O)CC4)cc3)cc2)n1` (stereo partly shown) [Example 146], the half-maximal degradation concentration (DC50) is 1000 to 5000 nM.
`CC(C)(c1ccc(OCc2ccnc(N3CC4(COC4)C3)n2)cc1)c1ccc(OC2CCN(Cc3ccc4c(c3)C(=O)N(C3CCC(=O)NC3=O)C4=O)CC2)cc1` (stereo not shown) [Example 147, 5-((4-(4-(2-(4-((2-(2-oxa-6-azaspiro[3.3]heptan-6-yl)pyrimidin-4-yl)methoxy)phenyl)propan-2-yl)phenoxy)piperidin-1-yl)methyl)-2-(2,6-dioxopiperidin-3-yl)isoindolin-1,3-dione]: the 50% degradation concentration (DC50) was 1000 to 5000 nM.
Consider `CC(C)[C@H](COc1ccc(C(C)(C)c2ccc(OCc3ccnc(N4CC5(COC5)C4)n3)cc2)cc1)Nc1ccc2c(c1)C(=O)N(C1CCC(=O)NC1=O)C2=O` (stereo partly shown) [Example 149], for which the 50% degradation concentration (DC50) was 1000 to 5000 nM.
In turn, `CC(C)[C@@H](COc1ccc(C(C)(C)c2ccc(OCc3ccnc(N4CC5(COC5)C4)n3)cc2)cc1)Nc1ccc2c(c1)C(=O)N(C1CCC(=O)NC1=O)C2=O` (stereo partly shown) [Example 150] came in with a half-maximal degradation concentration (DC50) of 11 to 100 nM.

Staying with this experiment, now noted: AR-v7 degradation in 22RV1 cells, 48 h, numeric values.
`CC(=O)c1nccc(COc2ccc(C(C)(C)c3ccc(OC4CCCN(c5ccc6c(c5)C(=O)N(C5CCC(=O)NC5=O)C6=O)C4)cc3)cc2)n1` (stereo not shown) [Example 107]: the DC50 is greater than 10000 nM.
On the same count and under the same terms, for `CC(=O)c1nccc(COc2ccc(C(C)(C)c3ccc(OCC4CCN(c5ccc6c(c5)C(=O)N(C5CCC(=O)NC5=O)C6=O)CC4)cc3)cc2)n1` (stereo not shown) [Example 108, 5-(4-((4-(2-(4-((2-acetylpyrimidin-4-yl)methoxy)phenyl)propan-2-yl)phenoxy)methyl)piperidin-1-yl)-2-(2,6-dioxopiperidin-3-yl)isoindol-1,3-dione] the value was greater than 10000 nM.

For orientation: DC50 means the midpoint of the concentration-degradation curve.
